The source of these data is patent publication US3985742A, “Process for preparing 3-hydroxymethyl cephalosporins” (priority 1975, dated 1976).

The structures appear in SMILES notation. Entries after “also recorded” stand apart in the source; their conditions may differ.

A short description of data set [1]: relative biopotency of blocked intermediate. The settings on record: starting material: disodium salt of 842A.
A further data set has as its system Escherichia coli W-MB-60. In words: disc zone bioassay of derivatives. In kind it is cell-based. The conditions noted are these: WMB60, 100γ/ml, read-out: disc zone size. From the text:
(§1) Bioassay: the disc zone sizes in the following table are expressed in mm. for 100γ/ml of antibiotic.
(§2) Bioassay: The disc zone sizes in the following table are expressed in mm. for equal concentrations of antibiotic.

In the next data set the test system is Vibrio percolans MB-1272. Briefly: disc-plate bioassay using Vibrio percolans. The conditions noted are these: Comamonas terrigena, MB1272, read-out: disc zone size, 5γ/ml.
Data set [2] has as its system several strains of bacteria. Briefly: bioactivity, summary. In kind it is cell-based.
Data set [3] concerns Pseudomonas stutzeri MB-1231. In words: disc zone bioassay of derivatives. In kind it is cell-based. The settings on record: Stutzerimonas stutzeri, MB1231, 100γ/ml; read-out: disc zone size.
Text: as §1
Bioassay: the disc zone sizes in the following table are expressed in mm. for equal concentrations of antibiotic.
as §2

For the next data set, the system named is gram-negative bacteria. Briefly: in vitro growth inhibition, summary. In kind it is cell-based.
A further data set has as its system gram-positive bacteria. Briefly: in vitro growth inhibition, summary. In kind it is cell-based. The settings on record: S. aureus, Sarcina lutea, B. subtilis.
The test system of data set [4] is Alcaligenes faecalis MB-9. In words: bacterial inactivation by washed bacterial cells. The conditions noted are these: 4 hour; assayed on B. subtilis (MB-964); start 4 mg/ml.
For data set [5], the system named is cephalosporinases and penicillinase. In words: resistance to enzymatic degradation / bacterial inactivation, summary statements. The conditions noted are these: listed as Antibiotic 842A.
Data set [6] in a line: blood appearance and urinary excretion. In kind it is in vivo, mice. The conditions noted are these: for appearance in blood / excretion: in vivo.
Data set [7] is described as follows: isoelectric point and pH stability. In kind it is physicochemical. The settings on record: for stability: pH 1.5.
The test system of another data set is Proteus morganii 356. Briefly: bacterial inactivation. The conditions noted are these: washed bacterial cells, 4 h. The procedure:
(§3) These cultures are: Escherichia coli 236, Proteus morganii 251, Proteus morganii 356 and Proteus mirabilis 241. […] In conducting the assay, individual mixtures of the organisms and one of the antibiotics were sampled after four hours incubation and assayed for residual antibiotic activity. The procedure is the same assay method as described above against Alcaligenes faecalis MB-9 and A. viscosus MB-12.

The next data set deals with Proteus mirabilis 241. Briefly: bacterial inactivation. The conditions noted are these: washed bacterial cells, 4 h. As for the experimental part:
as §3

A further data set relates to Escherichia coli 236. Briefly: bacterial inactivation. The settings on record: 4 hours; assayed on B. subtilis (MB-964). The procedure:
as §3

The subject of another data set is Proteus morganii 251. In words: bacterial inactivation. The settings on record: washed bacterial cells, 4 h. The procedure: as §3
The subject of data set [8] is Alcaligenes viscosus MB-12. In words: bacterial inactivation by washed bacterial cells. The settings on record: 4 hour; assayed on B. subtilis (MB-964); start 4 mg/ml.
In a further data set the test system is bacteria. In words: bactericidal action and development of resistance.
Data set [9] concerns gram-negative and gram-positive infections. Briefly: in vivo protection, summary statements. On the set-up: species or system mice. As for the experimental part:
Methods: The method employed in this characterization is as follows: Female white Swiss mice, average weight 20-23 grams, were infected intraperitoneally with 3-20 times the number of organisms calculated to be lethal for 50% of the infected control animals (3-20 LD50 doses). At the time of infection and again 6 hours later, therapy was given by the designated route. Controls of the virulence of the culture and the toxicity of the antibiotic for uninfected mice were included in the tests. Seven days after infection the test was considered complete and the amount of the antibiotic (I) that would be required to protect 50% of the infected and treated animals was calculated by the method of Knudsen and Curtis; J. Amer. Stat. Assoc. Vol. 42: page 282 (1947).
The method employed in these studies is the same as described above with regard to the in vivo characterization of 810A.

Consider `CO[C@@]1(NC(=O)CCC[C@@H](NC(=O)OC(C)(C)C)C(=O)O)C(=O)N2C(C(=O)O)=C(COC(N)=O)CS[C@@H]21` [7β-(D-5-N-tertiary-butoxycarbonylamino-5-carboxyvaleramido)-3-(carbamoyloxymethyl)-7-methoxy-3-cephem-4-carboxylic acid], for which, in [1], the “biopotency relative to starting material” value was “one-tenth the biopotency of the starting material”.
Regarding `CO[C@@]1(NC(=O)CCC[C@@H](N)C(=O)O)C(=O)N2C(C(=O)O)=C(CN=[N+]=[N-])CS[C@@H]21` [7β-(D-5-amino-5-carboxyvaleramido)-3-(azidomethyl)-7-methoxy-3-cephem-4-carboxylic acid], the figures for the zone of inhibition at 100 µg/mL (in the data set with Escherichia coli W-MB-60; in data set [3]) were 21 mm and 20 mm, respectively. Moreover, in the data set on Vibrio percolans MB-1272, the zone of inhibition at 5 µg/mL stood at 16 mm. Moreover, in data set [2], the bioactivity entry is given as “possessed bioactivity against several strains of bacteria”.
Turning to `CO[C@@]1(NC(=O)CCC[C@@H](N)C(=O)O)C(=O)N2C(C(=O)O)=C(COC(N)=O)CS[C@@H]21` [Example 842A], the “activity against Salmonella” value with gram-negative bacteria is “exhibits activity against Salmonella schottmuelleri 3010, S. gallinarum and S. typhosa”. Also, the growth inhibition entry in the data set on gram-negative bacteria (in vitro, E. coli, P. vulgaris, A. faecalis, B. bronchiseptica, S. gallinarum, V. percolans, X. vesicatoria) was “inhibits the growth of the following gram-negative bacteria”; in the data set with gram-positive bacteria, “inhibits the growth of the following gram-positive bacteria”. Also, the “Percent Inactivation After Incubation With Washed Bacterial Cells” value is listed as 0% in data set [4] and 54.4% in data set [8]. Also, the “resistance to enzymatic degradation / inactivation” value in [5] is “greater resistance to cephalosporinases; also recorded: more resistant to enzymatic degradation than cephalosporin C; also recorded: more stable than the latter against certain microorganisms; also recorded: more resistant than cephalosporin C to inactivation by A. faecalis, A. viscosus, Escherichia coli 236, Proteus morganii 251, Proteus morganii 236 and Proteus mirabilis 241”. Moreover, the “appearance in blood / excretion” value is reported as “rapidly excreted in the urine” in [6] (mouse) and “appears rapidly in the blood” in data set [6] (mouse, listed as Antibiotic 842A). Further, the dose excreted at 4 h in data set [6] (mouse, urine, sc, within four hours after administration, read-out: eliminated/recovered in the urine) was ~79%. The “eliminated/recovered in the urine” value in data set [6] (within four hours after administration, 240 min, listed as Antibiotic 842A, 240 min) is reported as “approximately 80%”. Besides, the apparent isoelectric point in data set [7] (amphoteric compound) is recorded as ~3.5 pH. Besides, the stability entry in data set [7] was “stable”; in [7] (listed as Antibiotic 842A), “relatively stable”. Besides, the percent inactivation in the data set on Proteus morganii 356 is recorded as 69%; with Proteus mirabilis 241, 5%; with Escherichia coli 236, 38%; in the data set with Proteus morganii 251, 80%. In the data set on bacteria, the bactericidal action entry was “bactericidal”. In addition, the development of resistance entry in the data set on bacteria is “resistance to it develops slowly”. For the same compound, in data set [9] (given orally), the “protection against infection, oral” value is “protects against infections due to Paracolobactrum arizonae 3270, Proteus vulgaris 1810, and Salmonella schottmuelleri 3010”. Further, the “in vivo activity / protection spectrum” value in data set [9] (mouse, in vivo, listed as Antibiotic 842A) is “protects against infection with three species of Proteus, two of Salmonella, one strain of Escherichia coli, two of Klebsiella and also against Paracolobactrum arizonae, Aerobacter aerogenes, Pasteurella multocida and Diplococcus pneumoniae 2400; also recorded: effectiveness against the following gram-negative bacteria: Escherichia coli, Proteus vulgaris, Proteus mirabilis, Proteus morganii, Salmonella schottmuelleri, Klebsiella pneumoniae AD, Klebsiella pneumoniae B, and Paracolobactrum arizonae”.
